# Reference: US7511041B2, “Fused azole-pyrimidine derivatives” (Bayer Pharmaceuticals Corporation, priority 2002, dated 2009)
# Where a name gives a salt, the structure may show the parent alone. Read-outs that look alike come from different tables or passages of the source.
# How the values were obtained:
# [1] = biological target: PI3Kβ (heterocomplex of p110β and GST-p85α) (UniProt Q9Z1L0); assay: Isozyme selectivity test: kinase assay of PI3Kβ; format: biochemical; conditions: activity class of IC50, read-out: In vitro PI3K-β inhibitory activity
# Method: [Isozyme Selectivity Test in PI3K]
# {Determination of IC50 Values of Compounds in Kinase Assay of PI3Kβ}
# Recombinant baculovirus of PI3Kβ p110β and GST-p85α were obtained from Dr. Katada (University of Tokyo). Recombinant PI3K heterocomplex of p110β and GST-p85α were co-expressed in insect cells according to manufacture's instruction (Pharmingen, San Diego, Calif.), and purified with glutathione affinity column. Kinase assay of PI3Kβ was prepared in a similar manner as described in the part of [Determination of IC50 values of compounds in kinase assay of PI3Kγ].
# [2] = biological target: T1, Recombinant human PI3Kγ (full length human PI3K p110γ) (Homo sapiens, UniProt P48736); assay: Kinase assay of PI3Kγ (solid-phase lipid kinase assay); format: biochemical
# T1 construct: full length human PI3K p110γ fused with a His6-tag at the C-terminus; His6 (C); purchased ALEXIS BIOCHEMICALS #201-055-C010; host or cells: S. frugiperda 9 insect cells
# [3] = activity class of IC50, read-out: In vitro PI3K-γ inhibitory activity
# [4] = in vitro PI3K-γ inhibitory activity, class symbols, read-out: in vitro PI3K-gamma
# T1 sequence (P48736 whole entry, the tested form may be a part): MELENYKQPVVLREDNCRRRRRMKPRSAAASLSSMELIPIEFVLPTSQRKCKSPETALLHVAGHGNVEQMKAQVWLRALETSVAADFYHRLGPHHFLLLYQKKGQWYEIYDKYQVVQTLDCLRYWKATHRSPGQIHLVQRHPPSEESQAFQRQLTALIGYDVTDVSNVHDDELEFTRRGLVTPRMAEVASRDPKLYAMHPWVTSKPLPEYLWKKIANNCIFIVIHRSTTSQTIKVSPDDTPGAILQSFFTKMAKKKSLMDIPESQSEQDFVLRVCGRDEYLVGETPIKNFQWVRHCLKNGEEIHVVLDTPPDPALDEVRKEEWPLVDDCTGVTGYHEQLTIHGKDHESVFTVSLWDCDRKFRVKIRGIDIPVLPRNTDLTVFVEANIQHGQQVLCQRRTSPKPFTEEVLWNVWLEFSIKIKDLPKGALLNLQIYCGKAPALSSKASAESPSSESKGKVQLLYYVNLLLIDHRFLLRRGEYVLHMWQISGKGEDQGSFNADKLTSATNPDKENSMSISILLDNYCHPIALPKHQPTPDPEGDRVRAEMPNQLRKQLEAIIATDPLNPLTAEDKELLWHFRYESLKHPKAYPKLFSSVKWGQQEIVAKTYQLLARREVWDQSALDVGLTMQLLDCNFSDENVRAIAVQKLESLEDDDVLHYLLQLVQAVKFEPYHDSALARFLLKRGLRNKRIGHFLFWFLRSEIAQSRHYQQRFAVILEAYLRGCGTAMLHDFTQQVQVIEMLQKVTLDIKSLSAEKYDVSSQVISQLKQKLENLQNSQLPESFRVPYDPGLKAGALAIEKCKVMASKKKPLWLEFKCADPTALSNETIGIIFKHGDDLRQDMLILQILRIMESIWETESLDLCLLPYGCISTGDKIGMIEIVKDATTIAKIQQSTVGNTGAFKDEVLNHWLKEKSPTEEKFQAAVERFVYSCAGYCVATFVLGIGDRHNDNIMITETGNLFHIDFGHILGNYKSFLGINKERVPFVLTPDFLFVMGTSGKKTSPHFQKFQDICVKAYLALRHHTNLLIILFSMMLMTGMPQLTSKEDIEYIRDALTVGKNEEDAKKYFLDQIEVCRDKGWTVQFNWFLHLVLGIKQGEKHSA
SMILES,IC50 [1] [nM],"IC50 [2, 3] [nM]",melting point,IC50 ([1]; hydrochloride) [nM],"IC50 ([2]; Table 1, isozyme not given, read-out: in vitro) [nM]","IC50 [2, 4] [nM]"
"COC(=O)CCCOc1ccc2c(c1OC)N=C(/C=C(\O)c1cccnc1)N1CCN=C21 [Example 1-5, Methyl 4-{[5-(2-hydroxy-2-pyridin-3-ylvinyl)-7-methoxy-2,3-dihydroimidazo[1,2-c]quinazolin-8-yl]oxy}butanoate]",500 to 2000,< 100,199 to 200 °C,–,–,–
"COc1c(OCCCC(=O)N2CCOCC2)ccc2c1N=C(/C=C(\O)c1cccnc1)N1CCN=C21 [Example 1-8, 2-[7-Methoxy-8-(4-morpholin-4-yl-4-oxobutoxy)-2,3-dihydroimidazo[1,2-c]quinazolin-5-yl]-1-pyridin-3-ylethylenol]",100 to 500,< 100,234 to 235 °C,–,–,–
"CC(=O)Nc1ccc(C(=O)NC2=Nc3cc(N4CCOCC4)ccc3C3=NCCN23)cn1 [Example 2-4, 6-(Acetamido)-N-[8-(morpholin-4-yl)-2,3-dihydroimidazo[1,2-c]quinazolin-5-yl]nicotinamide hydrochloride]",–,–,–,100 to 500,–,–
"O=C(NC1=Nc2ccccc2C2=NCCN12)c1cccnc1 [Example 2-1, N-(2,3-Dihydroimidazo[1,2-c]quinazolin-5-yl)nicotinamide]",100 to 500,< 100,238 to 239 °C (dec.),–,–,–
"O=C(NC1=Nc2cc(O)ccc2C2=NCCN12)c1cccnc1 [Example 2-5, N-(8-Hydroxy-2,3-dihydroimidazo[1,2-c]quinazolin-5-yl)nicotinamide]",500 to 2000,100 to 500,289 °C,–,–,–
"COc1cc2c(cc1OC)C1=NCCN1C(/C=C(\O)c1cccnc1)=N2 [Example 1-1, (Z)-2-(8,9-Dimethoxy-2,3-dihydroimidazo[1,2-c]quinazolin-5-yl)-1-(3-pyridinyl)ethenol]",500 to 2000,< 100,275 °C,–,–,–
"COc1c(OCCCC(=O)O)ccc2c1N=C(/C=C(\O)c1cccnc1)N1CCN=C21 [Example 1-6, 4-{[5-(2-Hydroxy-2-pyridin-3-ylvinyl)-7-methoxy-2,3-dihydroimidazo[1,2-c]quinazolin-8-yl]oxy}butanoic acid]",100 to 500,< 100,–,–,–,–
"O=C(NC1=Nc2cc(OCCn3cccc3)ccc2C2=NCCN12)c1cccnc1 [Example 2-6, N-{8-[2-(1-pyrrolyl)ethoxy]-2,3-dihydroimidazo[1,2-c]quinazolin-5-yl}nicotinamide]",100 to 500,100 to 500,209 °C,–,–,–
"CC(=O)Nc1ccc(C(=O)NC2=Nc3cc(N4CCOCC4)ccc3C3=NCCN23)cn1 [Example 2-3, 6-(Acetamido)-N-[8-(morpholin-4-yl)-2,3-dihydroimidazo[1,2-c]quinazolin-5-yl]nicotinamide]",500 to 2000,< 100,–,–,–,–
"COc1c(O)ccc2c1N=C(/C=C(\O)c1cccnc1)N1CCN=C21 [Example 1-4, 5-(2-Hydroxy-2-pyridin-3-ylvinyl)-7-methoxy-2,3-dihydroimidazo[1,2-c]quinazolin-8-ol hydrochloride]",500 to 2000,< 100,–,–,–,–
Cl.O/C(=C\C1=Nc2c(F)cccc2C2=NCCN12)c1cccnc1 [Example 1-71],–,–,303 °C,–,100 to 500,–
Cc1cccc2c1N=C(NC(=O)c1cccnc1)N1CCN=C21 [Example 2-107],–,–,244 °C,–,–,100 to 500
Cc1nc(C)c(C(=O)NC2=Nc3cc(N4CCOCC4)ccc3C3=NCCN23)s1 [Example 2-16],–,–,233 °C (dec.),–,–,100 to 500
COc1ccc2c(c1)C1=NCCN1C(NC(=O)c1cccnc1)=N2.Cl [Example 2-93],–,–,> 300 °C,–,–,100 to 500
